The values that follow are results of earlier work, collected in patent US9339504B2, “Orally disintegrating tablet compositions of lamotrigine” (ADARE Pharmaceuticals, Inc., priority 2007, dated 2016).

≈ marks a conversion by molar mass, not a printed value. Where two headings read alike, the source gives them in different places.

For the molecule `Nc1nnc(-c2cccc(Cl)c2Cl)c(N)n1` [Lamotrigine, 3,5-diamino-6-(2,3,-dichlorophenyl)-1,2,4-triazine], the “solubility in 0.01N HCl” value (0.01N HCl, 25° C.) was ~3000 µg/mL (≈ 11.7 mM). In addition, where the note is “0.1N HCl, 25° C.”, the “solubility in 0.1N HCl” value was ~4000 µg/mL (≈ 15.6 mM). Further, the solubility in water (25° C.) is ~170 µg/mL (≈ 0.664 mM) and the solubility in water (37° C.) is ~570 µg/mL (≈ 2.23 mM).
